Counter-ions that a name gives are not always drawn.
How the values were obtained:
[1] = tested on: esterase according to the invention (MACA-ester hydrolase); experiment: substrate specificity of the esterase according to the invention; type: biochemical
Excerpt: Following partial purification, the enzyme can be bound without difficulty, for example to the enzyme carrier VA-Epoxy-Biosynth®. The activity is normally determined by conversion of MACA-ester to MACA. HPLC or TLC is then employed for the quantitative evaluation of the amount of MACA that is formed.
The following table contains further information concerning the substrate specificity of the esterase according to the invention: […]

[2] = tested on: immobilized enzyme (MACA-ester hydrolase); experiment: cleavage of MACA ester (R) with immobilized esterase; type: biochemical, Nocardia sp. ATCC 53492; conditions: within 6-8 hours; pH 6.8, 30° C.; 5 g substrate, 100 g moist immobilized enzyme
Protocol: 2.5 g of R-ester hydrochloride are dissolved in 800 ml of 50 mM potassium phosphate solution, pH=6.8. 100 g of moist, immobilized enzyme are then added with stirring. The pH is kept at 6.8 and the temperature at 30° C. Further 1.25 g amounts of substrate are added after 2.5 h and after 41/4 h. In all, the mixture contains 5 g of MACA ester (R). The cleavage proceeds within the space of 6-8 hours to 95% conversion according to HPLC. The cleavage solution is separated from the enzyme and lyophilized. About 10 g of a white solid are obtained.

[3] = substrate concentration 2.5 mM, MACA ester pro J = 100
[4] = substrate concentration 100 mM, relative to MACA ester pro J = 100
[5] = substrate concentration 1.59 mM, HEPES, pH 6.95
[6] = substrate concentration 2.5 mM, phosphate buffer, pH 6.8

| Structure (SMILES) | Activity U/mg ([1]; substrate concentration 100 mM) [U/mg] | Activity U/ml ([1]; substrate concentration 100 mM) [U/ml] | Activity % [1, 4] [%] | other results |
| --- | --- | --- | --- | --- |
| COCC1=C(C(=O)O[C@H](C)OC(=O)C(C)(C)C)N2C(=O)C(N)[C@@H]2SC1 (stereo partly drawn) [MACA ester pro J, (1R,S)-1-(2,2-dimethylpropionyloxy)-ethyl 7-amino-3-methoxymethyl-3-cephem-4-carboxylate] | – | – | – | Activity U/mg ([1]; substrate concentration 2.5 mM): 87.75 U/mg; Activity U/ml ([1]; substrate concentration 2.5 mM): 35.2 U/ml; Activity % [1, 3]: 100% |
| CC(OC(=O)C(C)(C)C)OC(=O)C(C)(C)C | – | – | – | Activity U/mg ([1]; substrate concentration 50 mM): 3.5 U/mg; Activity U/ml ([1]; substrate concentration 50 mM): 1.4 U/ml; Activity % ([1]; substrate concentration 50 mM, relative to MACA ester pro J = 100): 4% |
| COCC1=C(C(=O)O[C@H](C)OC(=O)C(C)(C)C)N2C(=O)C(N)[C@@H]2SC1 (stereo partly drawn) [MACA ester pro K, (1R,S)-1-(2,2-dimethylpropionyloxy)-ethyl 7-amino-3-methoxymethyl-3-cephem-4-carboxylate] | – | – | – | Activity U/mg ([1]; substrate concentration 2.5 mM): 87.75 U/mg; Activity U/ml ([1]; substrate concentration 2.5 mM): 35.1 U/ml; Activity % [1, 3]: 99.7% |
| COCC1=C(C(=O)O[C@H](C)OC(=O)C(C)(C)C)N2C(=O)[C@@H](N)[C@H]2SC1 [R-ester hydrochloride] | – | – | – | conversion according to HPLC [2]: 95% |
| CCOC(=O)C(C)(C)C [Ethyl pivalate] | 42.75 | 17.1 | 48.6 | – |
| CC(=O)Oc1ccc([N+](=O)[O-])cc1 [p-Nitrophenyl acetate, p-nitrophenyl acetate] | – | – | – | Activity U/mg [1, 5]: 76.0 U/mg; Activity U/ml [1, 5]: 30.4 U/ml; Activity % ([1]; substrate concentration 1.59 mM, HEPES, pH 6.95, relative to MACA ester pro J = 100): 86.4%; Activity U/mg [1, 6]: 108.75 U/mg; Activity U/ml [1, 6]: 43.5 U/ml; Activity % ([1]; substrate concentration 2.5 mM, phosphate buffer, pH 6.8, relative to MACA ester pro J = 100): 123.6% |

Second part, led by results:

| Activity U/mg ([1]; substrate concentration 100 mM) [U/mg] | Activity U/ml ([1]; substrate concentration 100 mM) [U/ml] | Activity % [1, 4] [%] | Structure (SMILES) | other results |
| --- | --- | --- | --- | --- |
| 40 | 16 | 45.5 | CCOC(=O)C(C)N (racemic) [D,L-alanine ethyl ester] | – |
| 50 | 20 | 56.8 | CCOC(=O)CC [Ethyl propionate] | – |
| 92.75 | 37.1 | 105.4 | CC(=O)OCC(COC(C)=O)OC(C)=O [Triacetin] | – |
| 93.75 | 37.5 | 106.5 | CCCC(=O)OCC(COC(=O)CCC)OC(=O)CCC [Tributyrin] | – |
| 75 | 30 | 85.2 | CCOC(=O)C(C)Cl (stereo not shown) [Ethyl 2-chloro-propionate, ethyl 2-chloropropionate] | – |

Source: patent US5527697A, “7-amino-3-methoxymethyl-3-cephem-4-carboxylic ester hydrolase, process for its preparation, and its use” (Hoechst Aktiengesellschaft, priority 1992, dated 1996)
